Results on one compound are retold here after patent publication US11213666B2, “Method for administering a medicament suitable for treating a migraine or cluster headache” (SORRENTO THERAPEUTICS, INC., priority 2016, dated 2022).

The conditions of series [1]: cited from earlier work.
The nature of series [2]: Porcine pharmacokinetic study of sumatriptan delivered by the microneedle fluid delivery apparatus (FIG. 50). Type of series: in vivo, Yorkshire pigs. Conditions: 20 mg via fluid delivery apparatus (microneedles), pig, blood serum; compared with nasal, oral and Zecuity administration. The procedure:
In reference to FIG. 50, shown is the time versus concentration profile of sumatriptan as administered according to the methods and devices disclosed herein. An ideal profile (identified as “Target PK Profile”) is calculated based on the therapeutic efficiency of the medicament.
Thirty five 80 kg castrated or female Yorkshire pigs were placed under anesthesia and a catheter was inserted into the right or left jugular vein. After the catheter was placed, the pigs were kept under anesthesia and placed on their backs. The ventral region was shaved and covered with a depilatory cream (Nair Sensitive®) for 8 minutes. The cream was removed and the area washed with alcohol. The fluid delivery apparatus was placed against the skin with an adhesive and the microneedles (100 total) were inserted at a post traveling velocity of 6 m/s. A 20 mg dose of sumatriptan from the fluid deliver apparatus was delivered while the pig was under anesthesia. 3 mL blood samples were withdrawn at each time point and spun down to recover the blood serum.

The mark [3] stands for this setting: nasal administration, compared with the actual profile of the fluid delivery apparatus (FIG. 49 vs FIG. 50).
Setting [4] is: subcutaneous administration, compared with the other routes of administration.

Where two headings read alike, the source gives them in different places.

For the compound `CNS(=O)(=O)Cc1ccc2[nH]cc(CCN(C)C)c2c1.O=C(O)CCC(=O)O` [sumatriptan, 1-[3-[2-(dimethylamino)ethyl]-1H-indol-5-yl]-N-methylmethanesulfonamide butanedioic acid], the AUC entry in series [1] (setting [3]) was “significantly lower”; in series [2] it was “significantly improved”. The Css result in series [1] (setting [3]) is “significantly lower”; in series [1] (subcutaneous administration, as time progresses), “significantly lower”; in series [2], “significantly improved”. Further, the Tmax result is given as “much slower” in series [1] (oral administration, compared with the actual profile of the fluid delivery apparatus); “much faster” in series [1] (setting [4]); “significantly improved” in series [2]. Also, the Cmax result in series [1] (setting [4]) is “higher”.
